These results are taken from patent US10300226B2, “Rescue inhaler” (priority 2015, dated 2019).

For data set [1] the following is noted: cited from earlier work; for density: 25 degrees Celsius (dry air: no temperature given); for gas density: standard temperature and atmospheric pressure, gram molecular weight/22.4.
Data set [2] can be described thus: density of reference gases and prior-art heliox. Type of data set: physicochemical.

“And” between values parts separate entries of the source, which are not always exact repeats. Identical values can stand only once.

`N#N` [Example N2, nitrogen]: in data set [1], the density was 1.2506 kg/m^3 and the gas density is 1.25 g/L.

`[He]` [Helium]: in data set [1], the density is listed as 0.1787 kg/m^3; the gas density is 0.1785 g/L and 0.178 g/L.

The compound `O=O` [oxygen] yielded a density of oxygen in data set [2] (24 degree Celsius and 742 torr, d=molar mass x p/RT) of 1.28 g/L. Further, the “density of oxygen (D=P/RT)” value in data set [2] (T 273K, P 130000) is 1.79 g/L. Further, in data set [1], the density is on record as 1.429 kg/m^3 and the gas density was 1.428 g/L.
